{"source": "patent US20220365085A1", "about": "“B[…], THE USE OF B[…], SENSORS […] WITH THE SAID B[…] AND THE DETECTION METHOD OF SARS-COV-2 VIRUS” (SENSDX SPÓLKA AKCYJNA, priority 2019, published 2022)", "test_system": "SARS-CoV-2 virus", "note": "Numbered stars: 1 amine (or outer) side, 2 acyl side, 3 side chain; on linkers, the order of the positions; unused ones are H or OH. Square brackets hold non-standard residues; d marks the D form. Peptide text beside a SMILES is read from it. * marks the point of attachment. ξ: configuration not given here. X1 = O=C([C@@H](N[*:1])c1cnc[nH]1)[*:2]; Ile(3ξ) = CCC(C)[C@H](N)C(=O)O; Lauroyl = CCCCCCCCCCCC(=O)*", "data": [{"smiles": "CCCCCCCCCCCC(=O)N[C@H](C(=O)N[C@H](C(=O)N[C@@H](CO)C(=O)N[C@@H](CC(N)=O)C(=O)N[C@@H](Cc1c[nH]cn1)C(=O)N[C@@H](CO)C(=O)N[C@@H](Cc1c[nH]cn1)C(=O)N[C@@H](Cc1c[nH]cn1)C(=O)N[C@@H](Cc1c[nH]cn1)C(=O)N[C@@H](CC(=O)O)C(=O)N[C@H](C(=O)N[C@@H](CC(C)C)C(N)=O)C(C)CC)C(C)CC)c1cnc[nH]1", "note": "(stereo partly drawn) [11-KOD1, 11-Mrcpt-HISNHSHHHDIL-NH2] (Lauroyl-[X1][Ile(3ξ)]SNHSHHHD[Ile(3ξ)]L-NH2)", "values": [{"measurement": "result of the measurement on a negative swab (impedance changes on the sensor)", "result": "no impedance changes"}, {"measurement": "result of the measurement on a positive swab (presence of the virus in the sample)", "setting": "[…], MOBI SensDx reader, positive when Δ>10%", "result": "positive result (+)"}]}]}
